These results are taken from patent US9216215B2, “Adjuvant system for vaccine adjuvant” (VAXFORM LLC, priority 2010, dated 2015).

Data set [1] can be described thus: Linkage of CTL receptor agonist to aluminum adjuvant (FIG. 2). In kind it is physicochemical. The settings on record: aluminum oxyhydroxide. From the text:
However, monosaccharides can be modified by a chemical group including but not limited to fluoride, phosphate, sulfate, or carbonate group which permits a ligand exchange linkage of the molecule to the aluminum-containing adjuvant. Method for modifying saccharides by addition of fluoride, phosphate, sulfate, or carbonate groups is well known in the art (Cantos, et al. Biochem. J. (1993) 289: 155-160; Carbohydrate Chemistry, Royal Society of Chemistry, Ed. R D Guthrie (1968)). This is illustrated in FIG. 2 utilizing mannose as the CTL receptor agonist and aluminum oxyhydroxide. […] However, addition of a phosphate group at the 1 position of mannose (MIP) results in approximately 100% linkage of the CTL agonist to the aluminum adjuvant.
Another method to the increased avidity of the saccharide for the aluminum adjuvant particle is polymerization. For instance the avidity of the saccharide for the aluminum adjuvant particle may be increased by increasing the size of the saccharide by polymerization to produce a polysaccharide. The increase avidity for the aluminum adjuvant is due to the larger number of interactions of a polysaccharide as compared to a monosaccharide to allow for the stable linkage of the polysaccharide agonist to the aluminum adjuvant particle. […]

Data set [2] is described as follows: Stability of CTL agonist linkage to aluminum oxyhydroxide on exposure to phosphate (FIG. 3A, 3B). It is filed as physicochemical. The settings on record: 50 mM phosphate pH 7.4 for 30 minutes, absence of antigen. From the text: It is important to maintain the stability of the CTL agonist linkage to the aluminum particle upon exposure to body fluid following administration. Components of interstitial fluid such as phosphate, citrate, and protein have the potential to remove the linkage of the CTL agonist with aluminum-containing adjuvants. The resulting soluble CTL agonist may adversely impact the immune response. FIG. 3A illustrates that MIP as well as mannan maintain approximately 100% linkage with aluminum oxyhydroxide when exposed to 50 mM phosphate pH 7.4 for 30 minutes in the absence of antigen.

Regarding `O=P(O)(O)OC1O[C@H](CO)[C@@H](O)[C@H](O)[C@@H]1O` (stereo partly shown) [MIP, Mannose-1-phosphate], the “linkage of the CTL agonist to the aluminum adjuvant” value in data set [1] is “approximately 100%”. In data set [2], the “linkage with aluminum oxyhydroxide maintained” value is on record as “approximately 100%”.
As for mannan, the “linkage of the CTL agonist to the aluminum adjuvant” value in data set [1] is “approximately 100%”. Also, in data set [2], the “linkage with aluminum oxyhydroxide maintained” value is “approximately 100%”.
